Measured values as given in ChEMBL document CHEMBL4837230, “Thiophene-2-carboxamide derivatives of anthraquinone: A new potent antitumor chemotype” (Eur J Med Chem, 2021).
pIC50: −log10 of the molar value. Calls of active or inactive are those of the source. The calls are words filed in the database; no cut-off is given here.

What was measured:
[1] = test system: CAPAN-1; experiment: Cytotoxicity in human CAPAN-1 cells assessed as reduction in cell viability incubated for 72 hrs by MTT assay; type: functional, cell-based; settings: CAPAN-1, 72 h
[2] = test system: NCI-H460; experiment: Cytotoxicity in human NCI-H460 cells assessed as reduction in cell viability incubated for 72 hrs by MTT assay; type: functional, cell-based; settings: NCI-H460, 72 h
[3] = test system: HL-60; experiment: Cytotoxicity in human HL-60 cells assessed as reduction in cell viability incubated for 72 hrs by MTT assay; type: functional, cell-based; settings: HL-60, 72 h
[4] = Cytotoxicity in human DND41 cells assessed as reduction in cell viability incubated for 72 hrs by MTT assay; type: functional, cell-based; settings: DND41, 72 h
[5] = test system: Fibroblast; experiment: Cytotoxicity in human Fibroblast cells assessed as reduction in cell viability incubated for 72 hrs by MTT assay; type: functional, cell-based
[6] = Drug localization in nuclei of mouse NIH3T3 cells at 1 uM incubated for 5 to 60 mins by Hoechst 33258 staining based laser confocal microscopy; type: ADME, cell-based; settings: nih3t3, 1 µM, time 5-60 min
[7] = test system: HCT-116; experiment: Cytotoxicity against p53 knock out human HCT-116 cells assessed as reduction in cell viability incubated for 72 hrs by MTT assay; type: functional, cell-based; settings: HCT-116, 72 h
[8] = biological target: T1, DNA topoisomerase 1 (Homo sapiens) (UniProt P11387); experiment: Inhibition of topoisomerase 1 (unknown origin) assessed as relaxation of supercoiled plasmid pBR322 DNA at 1 to 5 uM incubated for 30 mins by electrophoresis; settings: dose 1-5 µM
T1 sequence (whole entry): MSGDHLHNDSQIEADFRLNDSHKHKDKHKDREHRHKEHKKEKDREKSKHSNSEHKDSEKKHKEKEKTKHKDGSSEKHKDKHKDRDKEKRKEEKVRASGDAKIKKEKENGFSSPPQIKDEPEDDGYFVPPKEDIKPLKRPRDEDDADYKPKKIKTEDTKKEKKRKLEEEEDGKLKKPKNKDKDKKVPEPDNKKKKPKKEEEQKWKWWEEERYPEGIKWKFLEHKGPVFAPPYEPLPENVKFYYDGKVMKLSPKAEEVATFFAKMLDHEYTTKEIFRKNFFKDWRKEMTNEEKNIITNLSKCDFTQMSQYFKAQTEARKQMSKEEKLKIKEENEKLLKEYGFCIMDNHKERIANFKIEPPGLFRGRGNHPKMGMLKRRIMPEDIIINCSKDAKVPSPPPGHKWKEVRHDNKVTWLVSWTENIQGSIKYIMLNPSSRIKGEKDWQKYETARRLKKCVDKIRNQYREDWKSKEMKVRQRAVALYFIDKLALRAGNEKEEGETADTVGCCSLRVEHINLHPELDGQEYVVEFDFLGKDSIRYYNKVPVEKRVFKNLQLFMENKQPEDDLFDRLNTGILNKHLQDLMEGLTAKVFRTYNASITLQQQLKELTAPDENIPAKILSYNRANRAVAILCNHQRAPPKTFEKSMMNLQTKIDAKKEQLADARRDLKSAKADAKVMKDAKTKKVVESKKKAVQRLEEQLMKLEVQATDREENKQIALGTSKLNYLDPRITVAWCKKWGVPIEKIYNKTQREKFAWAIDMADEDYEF

[9] = test system: K562; experiment: Induction of cell cycle arrest in human K562 cells assessed as increase in accumulation at sub-G1 phase at 2.5 uM after 48 hrs by propidium iodide staining based flow cytometric analysis (reference value: 8.4%); type: functional
[10] = test system: K562; experiment: Induction of cell cycle arrest in human K562 cells assessed as increase in accumulation at sub-G1 phase at 2.5 uM after 24 hrs by propidium iodide staining based flow cytometric analysis (reference value: 8.4%); type: functional
[11] = Resistance index, ratio of IC50 for cytotoxicity against human K562/4 cells to IC50 for cytotoxicity against human K562 cells; type: functional
[12] = Cytotoxicity in human K562/4 cells assessed as reduction in cell viability incubated for 72 hrs by MTT assay; type: functional, cell-based; settings: K562/4, 72 h
[13] = test system: K562; experiment: Induction of ROS generation in human K562 cells at 5 uM after 30 to 60 mins by Deep Red dye based flow cytometry method; type: functional, cell-based; settings: time 30-60 min
[14] = Drug localization in mitochondria of mouse NIH3T3 cells at 1 uM measured after 60 mins by MitoTracker red based confocal microscopic method; type: ADME; settings: nih3t3, 1 h
[15] = test system: HCT-116; experiment: Cytotoxicity in human HCT-116 cells assessed as reduction in cell viability incubated for 72 hrs by MTT assay; type: functional, cell-based; settings: HCT-116, 72 h
[16] = test system: K562; experiment: Induction of apoptosis in human K562 cells assessed as activation of casapse-9 cleavage measured after 24 hrs by Western blot analysis; type: functional, cell-based
[17] = test system: K562; experiment: Induction of apoptosis in human K562 cells assessed as activation of casapse-3 cleavage measured after 24 hrs by Western blot analysis; type: functional, cell-based; settings: dose 2.5 µM
[18] = Resistance index, ratio of IC50 for cytotoxicity against p53 knock out human HCT-116 cells to IC50 for cytotoxicity against human HCT-116 cells; type: functional
[19] = Drug localization in mitochondria of mouse NIH3T3 cells at 1 uM measured after 5 mins by MitoTracker red based confocal microscopic method; type: ADME; settings: nih3t3, 5 min
[20] = test system: K562; experiment: Induction of mitochondrial membrane potential loss in human K562 cells at 7.5 uM after 6 hrs by Mitotracker Red dye based flow cytometric analysis; type: functional, cell-based
[21] = test system: K562; experiment: Induction of cell cycle arrest in human K562 cells assessed as increase in accumulation at sub-G1 phase at 5 uM after 24 hrs by propidium iodide staining based flow cytometric analysis (reference value: 8.4%); type: functional
[22] = test system: K562; experiment: Induction of cell cycle arrest in human K562 cells assessed as increase in accumulation at sub-G1 phase at 0.5 uM after 48 hrs by propidium iodide staining based flow cytometric analysis (reference value: 8.4%); type: functional
[23] = test system: K562; experiment: Induction of cell cycle arrest in human K562 cells assessed as increase in accumulation at sub-G1 phase at 0.5 uM after 24 hrs by propidium iodide staining based flow cytometric analysis (reference value: 8.4%); type: functional
[24] = test system: K562; experiment: Induction of cell cycle arrest in human K562 cells assessed as increase in accumulation at sub-G1 phase at 5 uM after 48 hrs by propidium iodide staining based flow cytometric analysis (reference value: 8.4%); type: functional
[25] = test system: HeLa; experiment: Cytotoxicity in human HeLa cells assessed as reduction in cell viability incubated for 72 hrs by MTT assay; type: functional, cell-based
[26] = Drug localization in lysosome of mouse NIH3T3 cells at 1 uM incubated for 5 mins by lyso-tracker red based confocal microscopic method; type: ADME, cell-based; settings: nih3t3, 5 min
[27] = test system: Calf thymus DNA; experiment: Binding affinity to calf thymus double strand DNA incubated for 5 mins by spectrophotometry; type: nucleic-acid assay; settings: Bos taurus
[28] = test system: K562; experiment: Induction of apoptosis in human K562 cells assessed as activation of PARP cleavage measured after 24 hrs by Western blot analysis; type: functional, cell-based
[29] = Drug localization in lysosome of mouse NIH3T3 cells at 1 uM incubated for 60 mins by lyso-tracker red based confocal microscopic method; type: ADME, cell-based; settings: nih3t3, 1 h
[30] = Drug localization in cytoplasm of mouse NIH3T3 cells at 1 uM incubated for 5 to 60 mins by laser confocal microscopy; type: ADME, cell-based; settings: nih3t3, 1 µM, time 5-60 min

For `NCCNC(=O)c1cc2c(O)c3c(c(O)c2s1)C(=O)c1ccccc1C3=O`, the pIC50 [1] was under 4.70, the pIC50 [2] was 5.08 and the pIC50 [3] was under 4.70. The pIC50 [4] was 5.43.

`O=C(NC1CCCNC1)c1cc2c(O)c3c(c(O)c2s1)C(=O)c1ccccc1C3=O` (racemic) showed a pIC50 [1] of 5.64, a pIC50 [2] of 5.85 and a pIC50 [3] of 5.96. For the same compound, the pIC50 [4] was 6.00.

With `O=C(NC1CCNCC1)c1cc2c(O)c3c(c(O)c2s1)C(=O)c1ccccc1C3=O` the pIC50 [1] was 6.22, the pIC50 [2] was 5.85 and the pIC50 [3] was 5.49. The pIC50 [4] was 5.80.

With `Cc1c(C(=O)N2CC[C@@H](N)C2)sc2c(O)c3c(c(O)c12)C(=O)c1ccccc1C3=O` the pIC50 [1] was 5.70, the pIC50 [2] was 5.92 and the pIC50 [3] was 5.74. For the same compound, the pIC50 [4] was 5.85.

For `COc1cccc2c1C(=O)c1c(O)c3c(c(O)c1C2=O)C[C@@](O)(C(=O)CO)C[C@@H]3O[C@H]1C[C@H](N)[C@H](O)[C@H](C)O1` [DOXORUBICIN], the pIC50 [1] was 5.77, the pIC50 [5] was 6.70 and the pIC50 [2] was 6.40. For the same compound, the pIC50 [4] was 6.15.

`NCCN(CCN)C(=O)c1cc2c(O)c3c(c(O)c2s1)C(=O)c1ccccc1C3=O` showed a pIC50 [1] of 4.77, a pIC50 [2] of 5.08 and a pIC50 [3] of 4.85. For the same compound, the pIC50 [4] was 5.51.

Work on `N[C@@H]1CN(C(=O)c2cc3c(O)c4c(c(O)c3s2)C(=O)c2ccccc2C4=O)C[C@H]1N` yielded a pIC50 [1] of under 4.70, a pIC50 [2] of 4.79 and a pIC50 [3] of under 4.70. For the same compound, the pIC50 [4] was 4.96.

`NC1CCCN(C(=O)c2cc3c(O)c4c(c(O)c3s2)C(=O)c2ccccc2C4=O)C1` (racemic) gave a pIC50 [1] of 5.92, a pIC50 [2] of 6.40 and a pIC50 [3] of 6.40. It also gave a pIC50 [4] of 6.22.

For `O=C(NC1CN2CCC1CC2)c1cc2c(O)c3c(c(O)c2s1)C(=O)c1ccccc1C3=O` (stereo not drawn), the pIC50 [1] was 5.34, the pIC50 [2] was under 4.70 and the pIC50 [3] was 5.14. It also gave a pIC50 [4] of 5.62.

`O=C(N[C@H]1CCNC1)c1cc2c(O)c3c(c(O)c2s1)C(=O)c1ccccc1C3=O` showed a pIC50 [1] of 5.20, a pIC50 [2] of 5.46 and a pIC50 [3] of 5.54. The pIC50 [4] was 6.00.

Work on `O=C(N[C@@H]1CCNC1)c1cc2c(O)c3c(c(O)c2s1)C(=O)c1ccccc1C3=O` yielded a pIC50 [1] of 5.24, a pIC50 [2] of 5.39 and a pIC50 [3] of 5.57. For the same compound, the pIC50 [4] was 5.89.

`N[C@H]1CCN(C(=O)c2csc3c(O)c4c(c(O)c23)C(=O)c2ccccc2C4=O)C1` showed a pIC50 [4] of 5.59.

For `N[C@H]1CCN(C(=O)c2cc3c(O)c4c(c(O)c3o2)C(=O)c2ccccc2C4=O)C1`, the Drug uptake [6] was “Not Active”, the pIC50 [7] was under 4.30 and the inhibition [8] was “Active”. The Activity [9] was 23%, the Activity [10] was 24.2% and the pIC50 [1] was under 4.70. For the same compound, the Ratio [11] was 1.2, the pIC50 [12] was 6.22 and the Activity [13] was “inactive”. For the same compound, the Drug uptake [14] was “Not Active”, the pIC50 [15] was under 4.30 and the Activity [16] was “inactive”. For the same compound, the Activity [17] was “inactive”, the pIC50 [5] was under 4.30 and the Ratio [18] was 1. The Drug uptake [19] was “Not Active”, the pIC50 [2] was under 4.70 and the Activity [20] was “inactive”. It also gave a pIC50 [3] of 6.15, an Activity [21] of 40.2% and an Activity [22] of 7%. For the same compound, the pIC50 [4] was 5.82, the Activity [23] was 14.8% and the Activity [24] was 48.7%. For the same compound, the pIC50 [25] was under 4.30, the Drug uptake [26] was “Active” and the Activity [27] was “Active”. The Activity [28] was “inactive”, the Drug uptake [29] was “Active” and the Drug uptake [30] was “Active”.

`Cc1c(C(=O)N2CC[C@H](N)C2)sc2c(O)c3c(c(O)c12)C(=O)c1ccccc1C3=O` gave a pIC50 [1] of 5.66, a pIC50 [2] of 5.30 and a pIC50 [3] of 6.70. The pIC50 [4] was 5.80.

`N[C@@H]1CCN(C(=O)c2cc3c(O)c4c(c(O)c3s2)C(=O)c2ccccc2C4=O)C1` showed a pIC50 [1] of 5.82, a pIC50 [2] of 6.40 and a pIC50 [3] of 5.96. The pIC50 [4] was 6.40.
